Measured values from ChEMBL document CHEMBL1201862, “PubChem BioAssay data set” (2004).
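96-well plates; 48 h exposure; 5 concentrations. Endpoints by linear interpolation between flanking doses. Not reached: highest tested concentration assigned. Here, GI50 denotes the concentration required for 50% inhibition of growth.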 Active and inactive are the calls of the source. Rule as the data show it: active = GI50 up to about 1.1 µM and inactive = higher.

Tests used:
Experiment in all cases: DTP human tumour cell line panel, 48 h
SK-MEL-2 = system: SK-MEL-2
U-251 = system: U-251
SN12C = system: SN12C
DU-145 = system: DU-145
SW-620 = system: SW-620
SK-MEL-5 = system: SK-MEL-5
HT-29 = system: HT-29
OVCAR-5 = system: OVCAR-5
OVCAR-4 = system: OVCAR-4
OVCAR-3 = system: OVCAR-3
RXF 393 = system: RXF 393
SF-295 = system: SF-295
SNB-19 = system: SNB-19
MDA-MB-231 = system: MDA-MB-231
T47D = system: T47D
A549 = system: A549
RPMI-8226 = system: RPMI-8226

Compound | GI50 (SK-MEL-2) | GI50 (U-251) | GI50 (SN12C) | GI50 (DU-145) | GI50 (SW-620) | GI50 (SK-MEL-5) | GI50 (HT-29) | GI50 (OVCAR-5) | GI50 (OVCAR-4) | GI50 (OVCAR-3) | GI50 (RXF 393) | GI50 (SF-295) | GI50 (SNB-19) | GI50 (MDA-MB-231) | GI50 (T47D) | GI50 (A549) | GI50 (RPMI-8226)
CC(=O)CCNc1ccc(-c2cc(-c3ccc(N(C)C)cc3)nc3ccc4ccccc4c23)cc1 | 51.1 µM (inactive) | > 84.9 µM (inactive) | 33.5 µM (inactive) | > 57.5 µM (inactive) | > 100 µM (inactive) | 59.8 µM (inactive) | 66.2 µM (inactive) | > 100 µM (inactive) | 6.52 µM (inactive) | 44.8 µM (inactive) | 12.3 µM (inactive) | > 59.4 µM (inactive) | > 100 µM (inactive) | > 75 µM (inactive) | 9.48 µM (inactive) | 34.1 µM (inactive) | 11.7 µM (inactive)
Oc1c(CN2CCN(c3ccccc3)CC2)cc(Br)c2cccnc12 | 2.17 µM (inactive) | 0.671 µM (active) | 0.991 µM (active) | 1.63 µM (inactive) | 1.4 µM (inactive) | 0.805 µM (active) | 10.9 µM (inactive) | 4.07 µM (inactive) | 1.7 µM (inactive) | 0.423 µM (active) | 1.46 µM (inactive) | 1.21 µM (inactive) | 1.69 µM (inactive) | 2.33 µM (inactive) | 1.32 µM (inactive) | 1.43 µM (inactive) | 0.361 µM (active)
Clc1ccccc1C(Nc1cnccn1)Nc1cnccn1 | > 100 µM (inactive) | > 100 µM (inactive) | > 100 µM (inactive) | > 100 µM (inactive) | 4.36 µM (inactive) | > 100 µM (inactive) | > 100 µM (inactive) | > 100 µM (inactive) | > 100 µM (inactive) | > 100 µM (inactive) | > 100 µM (inactive) | > 100 µM (inactive) | > 100 µM (inactive) | > 100 µM (inactive) | > 100 µM (inactive) | > 100 µM (inactive) | 35.1 µM (inactive)
NNC(=O)CS(=O)(=O)Nc1ncccn1 | > 100 µM (inactive) | > 100 µM (inactive) | > 100 µM (inactive) | > 100 µM (inactive) | > 100 µM (inactive) | > 100 µM (inactive) | > 100 µM (inactive) | > 100 µM (inactive) | > 100 µM (inactive) | > 100 µM (inactive) | > 100 µM (inactive) | > 100 µM (inactive) | > 100 µM (inactive) | > 100 µM (inactive) | > 100 µM (inactive) | > 100 µM (inactive) | > 100 µM (inactive)
CN(C)CCc1c2c(nc3ccccc13)C(=O)c1cccnc1C2=O | 1.17 µM (inactive) | 0.176 µM (active) | 0.277 µM (active) | 0.126 µM (active) | 0.0873 µM (active) | 0.177 µM (active) | 1.55 µM (inactive) | 1.18 µM (inactive) | 0.31 µM (active) | 0.0513 µM (active) | 0.172 µM (active) | 0.203 µM (active) | 0.652 µM (active) | 0.385 µM (active) | 1.83 µM (inactive) | 1.24 µM (inactive) | 0.488 µM (active)
CC(C)=CCC[C@@H](C)C1=C(O)C(=O)C(C)=C(Nc2ccccc2I)C1=O | 10.8 µM (inactive) | 7.01 µM (inactive) | 16.7 µM (inactive) | 23.4 µM (inactive) | 21.9 µM (inactive) | 9.79 µM (inactive) | 14 µM (inactive) | 38.2 µM (inactive) | 5.01 µM (inactive) | 4.6 µM (inactive) | 13.2 µM (inactive) | 4.22 µM (inactive) | 25.4 µM (inactive) | 23.8 µM (inactive) | 8.2 µM (inactive) | 11.8 µM (inactive) | 9.1 µM (inactive)
O=C(Cc1cc(=O)oc2cc(O)ccc12)N/N=C/c1ccc(N(CCCl)CCCl)cc1 | > 100 µM (inactive) | 17.4 µM (inactive) | 17.7 µM (inactive) | 19.6 µM (inactive) | 34.1 µM (inactive) | 14.6 µM (inactive) | 22.2 µM (inactive) | 25.6 µM (inactive) | 23.8 µM (inactive) | 18.2 µM (inactive) | 16.6 µM (inactive) | 18.1 µM (inactive) | 21.1 µM (inactive) | 18.5 µM (inactive) | > 10 µM (inactive) | 16.1 µM (inactive) | 16.4 µM (inactive)
C/C(=C\COP(=O)(O)OP(=O)(O)O)CCCOCc1ccccc1 | > 100 µM (inactive) | > 100 µM (inactive) | > 100 µM (inactive) | > 100 µM (inactive) | > 100 µM (inactive) | 46.5 µM (inactive) | > 100 µM (inactive) | > 100 µM (inactive) | > 100 µM (inactive) | > 100 µM (inactive) | > 100 µM (inactive) | > 100 µM (inactive) | > 100 µM (inactive) | > 100 µM (inactive) | > 100 µM (inactive) | > 100 µM (inactive) | 0.207 µM (active)
COC(=O)[C@H](C)N1C(=O)N[C@@H](C(C)C)C1=O | > 100 µM (inactive) | > 100 µM (inactive) | > 100 µM (inactive) | > 100 µM (inactive) | > 100 µM (inactive) | > 100 µM (inactive) | > 100 µM (inactive) | > 100 µM (inactive) | > 100 µM (inactive) | > 100 µM (inactive) | > 100 µM (inactive) | > 100 µM (inactive) | > 100 µM (inactive) | > 100 µM (inactive) | > 100 µM (inactive) | > 100 µM (inactive) | > 100 µM (inactive)
Cc1ccc2c(c1)C(=O)C(Cc1ccccc1C(=O)O)C2 (centres undefined) | > 100 µM (inactive) | > 100 µM (inactive) | > 100 µM (inactive) | > 100 µM (inactive) | > 100 µM (inactive) | > 100 µM (inactive) | > 100 µM (inactive) | > 100 µM (inactive) | > 100 µM (inactive) | > 100 µM (inactive) | > 100 µM (inactive) | > 100 µM (inactive) | > 100 µM (inactive) | > 100 µM (inactive) | > 100 µM (inactive) | > 100 µM (inactive) | > 100 µM (inactive)
CC1=CCS(=O)(=O)C1C(O)C1=C(C)CCCC1(C)C (centres undefined) | > 100 µM (inactive) | 56.8 µM (inactive) | > 100 µM (inactive) | > 100 µM (inactive) | > 100 µM (inactive) | 44.4 µM (inactive) | > 100 µM (inactive) | > 100 µM (inactive) | 84.5 µM (inactive) | 99.8 µM (inactive) | > 100 µM (inactive) | 22.2 µM (inactive) | > 100 µM (inactive) | > 100 µM (inactive) | 45.7 µM (inactive) | 68.5 µM (inactive) | 14.3 µM (inactive)
O=C(O)c1cc(-c2ccncc2)nc2ccccc12 | > 100 µM (inactive) | > 100 µM (inactive) | > 100 µM (inactive) | > 100 µM (inactive) | > 100 µM (inactive) | > 100 µM (inactive) | > 100 µM (inactive) | > 100 µM (inactive) | > 100 µM (inactive) | > 100 µM (inactive) | > 100 µM (inactive) | > 100 µM (inactive) | > 100 µM (inactive) | > 100 µM (inactive) | > 100 µM (inactive) | > 100 µM (inactive) | > 100 µM (inactive)
